± gives the standard deviation of the averaged measurements.
Experiments:
[1] = compound: C[C@@H](Oc1cc(-c2cnn(C3CCNCC3)c2)cnc1N)c1c(Cl)ccc(F)c1Cl [CRIZOTINIB]; test: surviving fraction relative to DMSO-only wells; higher = less growth inhibition; conditions: exposure time: 5 days
Outline: (§1)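 Viability values are CellTiter-Glo luminescence readings, given as surviving fraction against the median of DMSO-only wells. The readings were taken after 10 minutes at room temperature, following five days of continuous exposure to inhibitors at 0.5, 1, 5, 10, 50, 100, 500 and 1000 nM that began 24 hours after log-phase tumour cell lines were seeded at 250–500 cells per well in 384-well plates. Every line was screened three times and kept only if replicate Pearson r >0.7 and median Z' >0.3.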

[2] = compound: O=C(c1cc(Cc2n[nH]c(=O)c3ccccc23)ccc1F)N1CCN(C(=O)C2CC2)CC1 [OLAPARIB]; test: as above; conditions: exposure time: 5 days
Outline: as §1

## CAL51 BREAST
[1]; 0.5 nM
  surviving fraction: 0.981 ± 0.081
[1]; 1 nM
  surviving fraction: 1.03 ± 0.034
[1]; 5 nM
  surviving fraction: 1.03 ± 0.012
[1]; 10 nM
  surviving fraction: 1.07 ± 0.052
[1]; 50 nM
  surviving fraction: 1.01 ± 0.05
[1]; 100 nM
  surviving fraction: 1.05 ± 0.046
[1]; 500 nM
  surviving fraction: 0.232 ± 0.024
[1]; 1000 nM
  surviving fraction: 0.213 ± 0.012
[2]; 0.5 nM
  surviving fraction: 0.97 ± 0.044
[2]; 1 nM
  surviving fraction: 1 ± 0.051
[2]; 5 nM
  surviving fraction: 0.95 ± 0.025
[2]; 10 nM
  surviving fraction: 0.926 ± 0.07
[2]; 50 nM
  surviving fraction: 0.948 ± 0.03
[2]; 100 nM
  surviving fraction: 0.882 ± 0.076
[2]; 500 nM
  surviving fraction: 0.828 ± 0.024
[2]; 1000 nM
  surviving fraction: 0.66 ± 0.051

## SG28 HEADNECK
[1]; 0.5 nM
  surviving fraction: 1.06 ± 0.052
[1]; 1 nM
  surviving fraction: 1.18 ± 0.1
[1]; 10 nM
  surviving fraction: 1.22 ± 0.055
[1]; 50 nM
  surviving fraction: 1.08 ± 0.025
[1]; 100 nM
  surviving fraction: 1.15 ± 0.12
[1]; 500 nM
  surviving fraction: 1.044 ± 0.0092
[2]; 0.5 nM
  surviving fraction: 1.12 ± 0.13
[2]; 1 nM
  surviving fraction: 0.982 ± 0.12
[2]; 5 nM
  surviving fraction: 1.02 ± 0.09
[2]; 10 nM
  surviving fraction: 0.952 ± 0.088
[2]; 50 nM
  surviving fraction: 0.914 ± 0.13
[2]; 100 nM
  surviving fraction: 0.887 ± 0.13
[2]; 500 nM
  surviving fraction: 0.928 ± 0.024
[2]; 1000 nM
  surviving fraction: 0.926 ± 0.065

## SG31 HEADNECK
[1]; 1 nM
  surviving fraction: 1.2 ± 0.13
[1]; 5 nM
  surviving fraction: 1.01 ± 0.12
[1]; 10 nM
  surviving fraction: 1.22 ± 0.24
[1]; 50 nM
  surviving fraction: 1.17 ± 0.26
[1]; 100 nM
  surviving fraction: 1.19 ± 0.18
[1]; 500 nM
  surviving fraction: 0.856 ± 0.073
[1]; 1000 nM
  surviving fraction: 0.6 ± 0.058
[2]; 0.5 nM
  surviving fraction: 1.17 ± 0.27
[2]; 1 nM
  surviving fraction: 1.09 ± 0.061
[2]; 5 nM
  surviving fraction: 1.02 ± 0.12
[2]; 10 nM
  surviving fraction: 0.985 ± 0.16
[2]; 50 nM
  surviving fraction: 0.932 ± 0.18
[2]; 100 nM
  surviving fraction: 0.908 ± 0.13
[2]; 500 nM
  surviving fraction: 0.946 ± 0.073
[2]; 1000 nM
  surviving fraction: 0.962 ± 0.073

## SAOS2 BONE
[1]; 0.5 nM
  surviving fraction: 1.14 ± 0.063
[1]; 1 nM
  surviving fraction: 1.12 ± 0.023
[1]; 5 nM
  surviving fraction: 1.2 ± 0.044
[1]; 10 nM
  surviving fraction: 1.23 ± 0.068
[1]; 50 nM
  surviving fraction: 1.34 ± 0.14
[1]; 100 nM
  surviving fraction: 1.19 ± 0.1
[1]; 500 nM
  surviving fraction: 0.541 ± 0.046
[1]; 1000 nM
  surviving fraction: 0.1927 ± 0.00058
[2]; 0.5 nM
  surviving fraction: 1.078 ± 0.0052
[2]; 1 nM
  surviving fraction: 1.02 ± 0.022
[2]; 5 nM
  surviving fraction: 1.16 ± 0.072
[2]; 10 nM
  surviving fraction: 1.07 ± 0.042
[2]; 50 nM
  surviving fraction: 0.882 ± 0.021
[2]; 100 nM
  surviving fraction: 0.8217 ± 0.0046
[2]; 500 nM
  surviving fraction: 0.753 ± 0.013
[2]; 1000 nM
  surviving fraction: 0.692 ± 0.027

## SCC36 HEADNECK
[1]; 0.5 nM
  surviving fraction: 1.05 ± 0.11
[1]; 1 nM
  surviving fraction: 1.06 ± 0.026
[1]; 5 nM
  surviving fraction: 1.2 ± 0.088
[1]; 10 nM
  surviving fraction: 1.24 ± 0.1
[1]; 50 nM
  surviving fraction: 1.13 ± 0.17
[1]; 100 nM
  surviving fraction: 1.07 ± 0.22
[1]; 500 nM
  surviving fraction: 0.552 ± 0.072
[1]; 1000 nM
  surviving fraction: 0.301 ± 0.025
[2]; 0.5 nM
  surviving fraction: 1 ± 0.045
[2]; 1 nM
  surviving fraction: 0.993 ± 0.12
[2]; 5 nM
  surviving fraction: 1.06 ± 0.018
[2]; 10 nM
  surviving fraction: 0.948 ± 0.12
[2]; 50 nM
  surviving fraction: 0.837 ± 0.1
[2]; 100 nM
  surviving fraction: 0.697 ± 0.027
[2]; 500 nM
  surviving fraction: 0.705 ± 0.066
[2]; 1000 nM
  surviving fraction: 0.596 ± 0.066

## DU4475 BREAST
[1]; 0.5 nM
  surviving fraction: 0.991 ± 0.16
[1]; 1 nM
  surviving fraction: 1 ± 0.12
[1]; 10 nM
  surviving fraction: 0.947 ± 0.17
[1]; 500 nM
  surviving fraction: 0.611 ± 0.05
[1]; 1000 nM
  surviving fraction: 0.389 ± 0.057
[2]; 0.5 nM
  surviving fraction: 1.16 ± 0.21
[2]; 1 nM
  surviving fraction: 1.36 ± 0.5
[2]; 5 nM
  surviving fraction: 1.228 ± 0.009
[2]; 10 nM
  surviving fraction: 1.22 ± 0.31
[2]; 50 nM
  surviving fraction: 0.954 ± 0.28
[2]; 100 nM
  surviving fraction: 0.739 ± 0.23
[2]; 500 nM
  surviving fraction: 0.689 ± 0.21
[2]; 1000 nM
  surviving fraction: 0.517 ± 0.15

## HOS BONE
[1]; 0.5 nM
  surviving fraction: 1.03 ± 0.026
[1]; 5 nM
  surviving fraction: 1.05 ± 0.017
[1]; 50 nM
  surviving fraction: 1.04 ± 0.025
[1]; 100 nM
  surviving fraction: 1.09 ± 0.022
[1]; 500 nM
  surviving fraction: 0.685 ± 0.041
[1]; 1000 nM
  surviving fraction: 0.575 ± 0.014
[2]; 0.5 nM
  surviving fraction: 1.03 ± 0.022
[2]; 1 nM
  surviving fraction: 1.03 ± 0.026
[2]; 5 nM
  surviving fraction: 1.06 ± 0.0091
[2]; 10 nM
  surviving fraction: 1.012 ± 0.0081
[2]; 50 nM
  surviving fraction: 1.02 ± 0.028
[2]; 100 nM
  surviving fraction: 1.01 ± 0.023
[2]; 500 nM
  surviving fraction: 1.01 ± 0.026
[2]; 1000 nM
  surviving fraction: 0.953 ± 0.041

## CHLA90 AUTONOMIC GANGLIA
[1]; 1 nM
  surviving fraction: 1 ± 0.025
[1]; 5 nM
  surviving fraction: 0.951 ± 0.016
[1]; 10 nM
  surviving fraction: 0.929 ± 0.056
[1]; 500 nM
  surviving fraction: 0.755 ± 0.14
[1]; 1000 nM
  surviving fraction: 0.476 ± 0.096
[2]; 0.5 nM
  surviving fraction: 1.02 ± 0.065
[2]; 1 nM
  surviving fraction: 1.07 ± 0.037
[2]; 5 nM
  surviving fraction: 1.01 ± 0.035
[2]; 10 nM
  surviving fraction: 0.993 ± 0.048
[2]; 50 nM
  surviving fraction: 0.95 ± 0.052
[2]; 100 nM
  surviving fraction: 1.01 ± 0.078
[2]; 500 nM
  surviving fraction: 0.963 ± 0.061
[2]; 1000 nM
  surviving fraction: 0.966 ± 0.059

## HCC1954 BREAST
[1]; 0.5 nM
  surviving fraction: 1.16 ± 0.14
[1]; 1 nM
  surviving fraction: 1.25 ± 0.11
[1]; 10 nM
  surviving fraction: 1.55 ± 0.21
[1]; 50 nM
  surviving fraction: 1.03 ± 0.18
[1]; 100 nM
  surviving fraction: 0.987 ± 0.06
[1]; 500 nM
  surviving fraction: 0.831 ± 0.082
[1]; 1000 nM
  surviving fraction: 0.689 ± 0.12
[2]; 0.5 nM
  surviving fraction: 0.84 ± 0.13
[2]; 1 nM
  surviving fraction: 0.762 ± 0.033
[2]; 5 nM
  surviving fraction: 1.1 ± 0.06
[2]; 10 nM
  surviving fraction: 0.969 ± 0.038
[2]; 50 nM
  surviving fraction: 0.916 ± 0.092
[2]; 100 nM
  surviving fraction: 0.6867 ± 0.0046
[2]; 500 nM
  surviving fraction: 0.719 ± 0.013
[2]; 1000 nM
  surviving fraction: 0.497 ± 0.0021

From the supplement of paper PMC6045584
